Experimental data: PubChem BioAssay AID449762 (Southern Research Specialized Biocontainment Screening …, 2010)
Results filed as inconclusive are left out.

Test system: M. tuberculosis H37Rv growth inhibition, 7H9 media
Assay: M. tuberculosis growth inhibition, HTS (AID 449762);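 further: bacterial growth assessed after seven days of incubation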
Conditions: for IC90: measured here: IC90 growth inhibition

SMILES	IC50	IC90
CCOc1cc(/C=C2\COc3ccccc3C2=O)cc(Br)c1OCC(=O)N(C)C	2.75 µM	6.63 µM
CC(C)(C)OC(=O)NCCCCCc1nnc(SCc2ccc(F)cc2)o1	14.2 µM	48.2 µM
CCOc1ccc(-n2c(O)c(/C=N/Nc3nnc(C)c(=O)[nH]3)c3ccccc3c2=O)cc1	11.3 µM	> 100 µM
Cc1ccc(C2(c3ccc(C)cc3)CC2C(=O)Nc2ccc([N+](=O)[O-])cc2O)cc1 (configuration not stated)	19.7 µM	27.1 µM
Cc1cc(C)n(-c2nc(Nc3ccccc3C(F)(F)F)nc(-n3nc(C)cc3C)n2)n1	0.65 µM	1.56 µM
CO/N=C(\Cn1ncc(N2CCCC2)c(Cl)c1=O)c1ccc(Cl)cc1	16.9 µM	27.5 µM
CCCOC(=O)c1ccc(-c2ccc(C=O)o2)cc1	0.82 µM	> 100 µM
Cc1ccc(C(=O)N2N=C(c3ccc(NS(C)(=O)=O)cc3)CC2c2cccs2)cc1 (configuration not stated)	12.4 µM	21.2 µM
Cc1cccc2c1N(CCCOc1ccc(C(C)(C)C)cc1)C(=O)C2=O	17.3 µM	20.7 µM
Cc1cc(C)n(-c2nc(NCCN(C)C)c3c4c(sc3n2)CCCC4)n1	14.6 µM	18.6 µM
CCOC(=O)c1ccc(NC(=O)CSc2ccc(-c3cccnc3)nn2)cc1	–	> 100 µM
O=C(/C=C/c1cc(Br)ccc1O)c1ccco1	7.96 µM	13.4 µM
Cc1cc(/C=C2\SC(=Nc3ccc(F)cc3)NC2=O)c(C)n1-c1ccc(S(N)(=O)=O)cc1	22.4 µM	25.5 µM
CCCCC(=O)Nc1sc2c(c1C(=O)OCC)CCC(C=O)=C2Cl	14.6 µM	44.5 µM
CCOC(=O)CSC1=C(C#N)C(c2ccc(C)cc2)C2=C(CCCC2=O)N1 (configuration not stated)	43.9 µM	> 100 µM
Cn1cnnc1SCc1ccc(C(=O)N=Nc2c(O)n(Cc3ccc(Cl)cc3)c3ccccc23)cc1	2.97 µM	3.4 µM
Nc1cc(C(=O)OCC(=O)NNC(=O)c2cccs2)ccc1Cl	64.2 µM	> 100 µM
Cc1ccccc1Cn1ccc(=NCc2ccccc2)cc1	4.39 µM	12 µM
COc1cc2c(cc1OC)C(c1cc(Br)ccc1F)N(C(=O)CCl)CC2 (configuration not stated)	2.77 µM	5.69 µM
CCOc1cc(/C=N\NC(=O)Cn2nc([N+](=O)[O-])cc2C)ccc1OCc1cccc2ccccc12	–	> 100 µM
O=C(NC1CCCCC1)C(c1ccc2ncccc2c1)N(Cc1ccco1)C(=O)c1ccc2c(c1)OCCO2 (configuration not stated)	92.7 µM	> 100 µM
CCOC(=O)c1c(CC(C)C)csc1NC(=O)CCl	< 0.2 µM	7.5 µM

SMILES	IC50	IC90
O=c1c(-c2cnn(-c3ccccc3)c2)coc2cc(O)ccc12	12.1 µM	> 100 µM
COc1cc2[nH]c(Cl)c([N+](=O)[O-])c2cc1OC	99.6 µM	> 100 µM
CSc1nsc(/C=C/Nc2ccc(O)cc2C)c1C#N	27 µM	43 µM
O=C(Nc1cc(N2CCOCC2)ncn1)NC1(C(F)(F)F)Oc2ccc(Cl)cc2O1 (configuration not stated)	11.8 µM	18.9 µM
O=C(NC1CCCCC1)C(c1cccs1)N(CCCN1CCOCC1)C(=O)c1ccc(-c2ccccc2)[nH]1 (configuration not stated)	40.2 µM	55.5 µM
CC(C)(C)NC(=O)C(=O)NNC(=O)c1ccc(C(C)(C)C)cc1	5.71 µM	17.6 µM
N#Cc1cccc2c1-c1ccccc1/C2=N/NC(N)=O	93.9 µM	> 100 µM
CN(/N=C/c1cc(Br)cc(Br)c1O)c1cccc(C(F)(F)F)n1	3.93 µM	7.43 µM
CCOC(=O)CN(C#N)c1nc(N(C)C)nc(N(C)C)n1	11.1 µM	12.5 µM
COc1ccc(N2CCN(C(=O)c3cc4c(C)nc5ccccc5c4o3)CC2)cc1	18.5 µM	32.5 µM
COC(=O)CSc1nnc(-c2sc3cc(OC)ccc3c2Cl)n1C	9.08 µM	> 100 µM
Cc1ccc(-c2noc(-c3cc4ccccc4oc3=O)n2)cc1	6.7 µM	> 100 µM
COc1ccc(NC(=O)ON=C2c3ccccc3-c3ccccc32)cc1	–	> 100 µM
Cc1ccc(Cl)cc1N1CCN(Cc2nc3ccsc3c(=O)[nH]2)CC1	83.1 µM	> 100 µM
COc1ccc(C[C@H]2CN3C(=NC[C@H]3Cc3ccccc3)N2CCNC(=O)CCC2CCCCC2)cc1	16.8 µM	21.3 µM
Cc1n[nH]c(=S)n1/N=C/c1cccc(OCc2ccccc2)c1	75.4 µM	> 100 µM
COc1ccc(/C=N/Nc2cc(C)nc3ccc(OC)cc23)c(OC)c1	9.39 µM	11.9 µM
CCC(C)c1ccc2oc(-c3ccc(NC(=O)c4ncn[nH]4)cc3)nc2c1 (configuration not stated)	1.59 µM	7.52 µM
CCn1c2ccccc2c2cc(CN3CCN(Cc4cc(OC)ccc4O)CC3)ccc21	16.8 µM	23.5 µM
O=c1cc(-c2ccccc2Cl)oc2ccc([N+](=O)[O-])c(O)c12	11.9 µM	15.6 µM
C=CCNCC(=O)N1N=C(c2ccc3ccccc3c2)CC1c1ccc(OC)cc1 (configuration not stated)	21.8 µM	24.3 µM
COc1cc(C2c3cc4c(cc3C(OC3OC5COC(c6cccs6)OC5C(O)C3O)C3COC(=O)C23)OCO4)cc(OC)c1O (configuration not stated)	13.1 µM	29.5 µM

SMILES	IC50	IC90
Cn1c(NC(=S)Nc2ccccc2)nc2ccccc21	3.71 µM	6.27 µM
Cc1cc(/C=N\NC(=O)c2cccs2)c(C)n1-c1ccc2ncccc2c1	12.1 µM	31.7 µM
CCOc1ccc(-n2c(-c3ccc(Br)cc3)c[n+]3c2CCCCC3)cc1	69.7 µM	> 100 µM
O=C1NCN(c2ccccc2)C12CCN(CCCC(c1ccc(F)cc1)c1ccc(F)cc1)CC2	36.8 µM	47.1 µM
CC(C)Oc1ccc(C(=O)N/N=C/c2ccc(-c3ccc(S(=O)(=O)Nc4ncccn4)cc3)o2)cc1	19.2 µM	37.4 µM
COc1ccc(C(CCNCc2ccc(OC(C)C)cc2)C(C)C)cc1 (configuration not stated)	23.3 µM	26.9 µM
CCOCCN1CCN(c2c(CC)c(C)nc3cc(-c4cc(OC)cc(OC)c4)nn23)CC1	25.5 µM	38.9 µM
Nc1ccc(C(=O)OCCCc2nc3cc4ccccc4cc3[nH]2)cc1	45.6 µM	51.7 µM
CCOC(=O)c1ccc(N=C2SC(C(=O)Nc3ccc(C(=O)O)cc3)CC(=O)N2Cc2cccs2)cc1 (configuration not stated)	–	> 100 µM
N#C/C(=N/Nc1ccc(OC(F)(F)F)cc1)C(N)=S	2.14 µM	3.43 µM
CN(C)c1ccnc2c[cH-]cc12.[Fe].c1ccc(-[c-]2[c-](-c3ccccc3)[c-](-c3ccccc3)[c-](-c3ccccc3)[c-]2-c2ccccc2)cc1 (configuration not stated)	13.7 µM	17.4 µM
CC(C)(C)c1nc2sc3c(c2c(=O)o1)CCCC3	–	> 100 µM
CCOc1cc2c3c(c1)C1(C(=O)N3C(C)(C)CC2C)C(C#N)=C(N)N2C(=C1C#N)Nc1ccccc12 (configuration not stated)	22.4 µM	> 100 µM
Cn1c(NCC(O)c2ccccc2)nc2c1c(=O)n(Cc1ccc(Cl)c(Cl)c1)c(=O)n2C (configuration not stated)	7.51 µM	18.1 µM
ClCc1nc2ccccc2c2ccccc12	6.3 µM	17.2 µM
O=C(Nc1ccc2nsnc2c1)NC1CCCCC1	26 µM	> 50 µM
CC1(c2cc([N+](=O)[O-])cc([N+](=O)[O-])c2)CC(C)(C)N(C(=O)c2ccccc2)c2ccccc21 (configuration not stated)	12.1 µM	19.4 µM
Cc1nn(Cc2ccccc2Cl)c2sc(C(=O)NCCCn3ccnc3)cc12	37.5 µM	49.5 µM
Cc1ccc(-c2c[n+](CC(=O)N3c4ccccc4Sc4ccccc43)c3n2CCC3)cc1	12.9 µM	20.2 µM
CC(C)CS(=O)(=O)C1=NN2C(=N)/C(=C\c3ccc(OC(=O)c4ccco4)cc3)C(=O)N=C2S1	20.6 µM	25.9 µM
Cc1nn(-c2ccccn2)c2c1-c1nc(N3CCOCC3)ncc1CC2	12.9 µM	> 100 µM
CCOC(=O)Cn1c(-c2ccccc2)ccc(C#N)c1=O	4.51 µM	> 100 µM

SMILES	IC50	IC90
C=CCn1c(O)c(N=Nc2ccccc2O)c2ccccc21	6.1 µM	24.3 µM
C=C1C(=O)[C@@]23[C@H](O)C[C@@H]4C(C)(C)CC[C@H](O)[C@@]4(C)[C@@H]2CC[C@@H]1[C@H]3O	3.04 µM	4.05 µM
C=C(C)CSc1cc(C)c(C#N)c2nc3ccccc3n12	34.3 µM	48.1 µM
CCCCCCCCNC(=O)CCNC(=O)c1ccc(C(C)(C)C)cc1	35.3 µM	44.6 µM
CN1/C(=C/C(=O)c2nc(S(C)(=O)=O)ncc2Cl)C(C)(C)c2ccccc21	3.21 µM	10.7 µM
O=C(NC(C(=O)N/N=C/c1cccc2ccccc12)c1n[nH]c(=O)c2ccccc12)c1ccccc1 (configuration not stated)	53.2 µM	> 100 µM
COc1ccc(-c2nc(NC(=O)Cn3ccc(C(F)(F)F)n3)sc2C)cc1	< 0.2 µM	2.92 µM
CC1(C)CC(=O)C2=C(C1)NC(Nc1nc3ccccc3o1)=NC2c1ccccn1 (configuration not stated)	< 0.2 µM	2.31 µM
CCOC(=O)COc1ccc(/C=C2\NC(=S)N(CC)C2=O)cc1	1.17 µM	8.47 µM
CCc1cc(C(=O)Nc2ccc(C)cc2Br)cs1	30 µM	> 100 µM
CCc1ccc2oc(-c3ccc(OC)cc3)cc(=Nc3c(C)n(C)n(-c4ccccc4)c3=O)c2c1	22.4 µM	25.1 µM
CC(/C=C/c1ccccc1)=N\NC(N)=S	3.84 µM	9.07 µM
O=C1Nc2ccc(Br)cc2/C1=C/C(=O)c1ccc2c(c1)OCO2	7.71 µM	18.1 µM
CSc1ncc(C(=O)Nc2ccc(Br)cn2)c(C)n1	0.93 µM	3.9 µM
COc1ccc(C2c3[nH]c4ccccc4c3CCN2Cc2cccn2-c2ncccn2)cc1C (configuration not stated)	25.2 µM	28.9 µM
Fc1cccc(CCN2CCNC[C@H]2Cc2cccc3ccccc23)c1	36.6 µM	43.2 µM
CCCCNc1nc(N(C)c2ccccc2)nc(-n2ccnc2)n1	10.8 µM	> 25 µM
Cc1ccc(CN2CCC(c3cc(-c4ccc(Cl)cc4)n[nH]3)CC2)cc1	11.6 µM	14.8 µM
N#CC(C(=O)NCc1ccco1)c1nc2ccccc2nc1N1CCOCC1 (configuration not stated)	43 µM	45.2 µM
COc1cccc(-c2nnc(NC(=O)c3ccc(S(=O)(=O)N4CCOCC4)cc3)o2)c1	23.6 µM	26.7 µM
